We go through 17 compounds from publication PMC12114169, “Synthesis, Characterisation, Biological Evaluation and In Silico Studies of Quinoline–1,2,3-Triazole–Anilines as Potential Antitubercular and Anti-HIV Agents” (Molecules, 2025).

SMILES strings stand for the structures. ≈ marks a conversion by molar mass, not a printed value. Where “and” joins values, the source holds several entries; their conditions need not be identical. Equal entries are not always repeated. Where two headings read alike, the source gives them in different places.

The nature of series [1]: MTT cytotoxicity evaluation. Particulars: human, Cytotoxicity CC50 TZM-bl Cell Line, MTT assay. (In general: Tetrazolium assays rely on reduction of a dye to a coloured formazan, in cell work by metabolically active cells.)
Series [2] deals with HIV-1 subtype B (NL4.3 virus). Nature of the series: Luciferase-based antiviral assay in TZM-bl cells. Particulars: for SI (CC50/IC50): selectivity index, TZM-bl CC50 / HIV-1 IC50.
Series [3] concerns Mtb. The arrangement: method as in PMID 21489660. To be noted: antitubercular activity; cited from earlier work.
Series [4] has as its target HIV reverse transcriptase. On the set-up: method as in PMID 30370848. Particulars: cited from earlier work.
The subject of series [5] is Mtb H37Rv (ATCC 27294) strain. The series can be described thus: Antimycobacterial micro broth dilution (resazurin) assay. In kind it is cell-based, Mycobacterium tuberculosis. Particulars: 7 days, read-out: Anti-Mtb H37Rv MIC90. For orientation: In broth dilution the organism is exposed to a series of concentrations in liquid medium.
Series [6] relates to TZM-bl cell line. The series can be described thus: MTT cytotoxicity evaluation. Particulars: read-out: Cytotoxicity CC50 TZM-bl Cell Line; MTT assay.
Setting [7] is: Human immunodeficiency virus 1, TZM-bl, 48 h, read-out: Anti-HIV HIV-1 Subtype B IC50, NL4.3 virus in TZM-bl cells, 48 h, luciferase.
[8] abbreviates: Mycobacterium tuberculosis, 168 h.
The mark [9] stands for this setting: read-out: Anti-HIV HIV-1 Subtype B IC50, NL4.3 virus in TZM-bl cells, 48 h, luciferase.

Broadly, the CC50 is the concentration at which the toxic effect on the cells reaches its halfway point. The IC50 is the concentration that gives 50% inhibition. One may read the MIC as the lowest concentration that inhibits growth of the organism. Broadly, the MIC90 is the lowest concentration that inhibits either 90% of growth or 90% of the strains tested, depending on the study.

In the case of `Cc1cn([C@H]2C[C@H](N=[N+]=[N-])[C@@H](CO)O2)c(=O)[nH]c1=O` [AZT, azidothymidine, reference compound], in series [1], it took 1120 µM to reach half-maximal cytotoxicity (CC50). The half-maximal inhibitory concentration (IC50) in series [2] (setting [7]) came out at 0.0909 µM. In series [2], the “SI (CC50/IC50)” value was 12,349 and 12,349.59.

As to `COc1ccc2nccc(-n3cc(CNC(C)=O)nn3)c2c1` [Compound 1], the MIC in series [3] is given as 0.625 µg/mL (≈ 2.1 µM).

Regarding `COc1ccc(S(=O)(=O)NCc2cn(-c3ccnc4ccc(OC)cc34)nn2)cc1` [Compound 2], the MIC in series [3] is listed as 0.625 µg/mL (≈ 1.47 µM).

Take `COc1ccc2nccc(-n3cc(CN4CCN(C(C)=O)CC4)nn3)c2c1` [Compound 3]: the MIC in series [3] is reported as 0.625 µg/mL (≈ 1.71 µM).

On to `O=C1O[C@](C#CC2CC2)(C(F)(F)F)c2ccccc2N1Cc1cn(-c2ccnc3cc(Cl)ccc23)nn1` [Compound 5], for which the IC50 in series [4] was 0.8 µM.

With `[N-]=[N+]=Nc1ccnc2cc(Cl)ccc12` [Compound 7, 4-azido-7-chloroquinoline], the MIC90 in series [5] (setting [8]) stood at 19.1 µM (≈ 3.91 µg/mL).

As to `C#CCNc1ccccc1` [Compound 10a, N-2-propyl-1-yl-benzanamine], the MIC90 in series [5] (setting [8]) was found to be 3810 µM (≈ 500 µg/mL).

For `Clc1ccc2c(-n3cc(CNc4ccccc4)nn3)ccnc2c1` [Compound 11a], the CC50 in series [1] was greater than 100 µM; in series [6], 177 µM. Moreover, the MIC90 in series [5] (setting [8]) came out at 187 µM (≈ 62.6 µg/mL). The half-maximal inhibitory concentration (IC50) in series [2] (setting [7]) was determined as 3.01 µM. The “SI (CC50/IC50)” value in series [2] is given as 58.75.

Regarding `Clc1ccc2c(-n3cc(CNc4ccc(Br)cc4)nn3)ccnc2c1` [Compound 11b, [1-(7-Chloro-4-quinolinyl)-1H-1,2,3-triazole-4-methyl]-4-bromoaniline], the CC50 in series [1] was 0.248 µM. In addition, in series [5] (setting [8]), the MIC90 turned out to be 1210 µM (≈ 502 µg/mL). Moreover, the IC50 in series [2] (setting [7]) amounted to 124 µM. Moreover, the “SI (CC50/IC50)” value in series [2] was 1.994 × 10^−3.

With `Clc1ccc2c(-n3cc(CNc4ccc(I)cc4)nn3)ccnc2c1` [Compound 11c, [1-(7-Chloro-4-quinolinyl)-1H-1,2,3-triazole-4-methyl]-4-iodoaniline], half-maximal cytotoxicity in series [1] (CC50) was put at 157 µM. Also, in series [5] (setting [8]), the MIC90 was found to be 1080 µM (≈ 501 µg/mL). Moreover, the IC50 in series [2] (setting [7]) was determined as 23.2 µM. In addition, the “SI (CC50/IC50)” value in series [2] turned out to be 6.76.

On to `Fc1ccc(NCc2cn(-c3ccnc4cc(Cl)ccc34)nn2)cc1` [Compound 11d, [1-(7-Chloro-4-quinolinyl)-1H-1,2,3-triazole-4-methyl]-4-flouroaniline], for which the CC50 in series [1] turned out to be 1320 µM. Moreover, the MIC90 in series [5] (setting [8]) came out at 177 µM (≈ 62.5 µg/mL). In addition, the “Anti-HIV HIV-1 Subtype B IC50” value in series [2] (NL4.3 virus in TZM-bl cells, 48 h, luciferase) was “DNC *”.

Consider `Clc1cccc(NCc2cn(-c3ccnc4cc(Cl)ccc34)nn2)c1` [Compound 11e, [1-(7-Chloro-4-quinolinyl)-1H-1,2,3-triazole-4-methyl]-3-chloroaniline], for which the CC50 in series [1] turned out to be 835 µM. The MIC90 in series [5] (setting [8]) was 169 µM (≈ 62.5 µg/mL). Besides, in series [2] (setting [7]), the IC50 worked out at 714 µM. Moreover, the “SI (CC50/IC50)” value in series [2] is listed as 1.17.

Regarding `FC(F)(F)c1ccccc1NCc1cn(-c2ccnc3cc(Cl)ccc23)nn1` [Compound 11g, [1-(7-Chloro-4-quinolinyl)-1H-1,2,3-triazole-4-methyl]-2-triflouromethylaniline], the MIC90 in series [5] (setting [8]) came out at 155 µM (≈ 62.6 µg/mL). Moreover, the IC50 in series [2] (setting [7]) and in series [2] (setting [9]) was 0.388 µM each time. In addition, the “SI (CC50/IC50)” value in series [2] was 11,367.49.

In series [1], `Fc1cccc(NCc2cn(-c3ccnc4cc(Cl)ccc34)nn2)c1` [Compound 11h, [1-(7-Chloro-4-quinolinyl)-1H-1,2,3-triazole-4-methyl]-3-flouroaniline] returned a CC50 of 25.5 µM. In addition, the figures for the MIC90 in series [5] and in series [5] (setting [8]) were 88.72 µM (≈ 31.4 µg/mL) and 88 µM (≈ 31.1 µg/mL), respectively. Besides, the IC50 in series [2] (setting [7]) and in series [2] (setting [9]) was 0.0103 µM in each case. Further, in series [2], the “SI (CC50/IC50)” value was 2472.87.

Regarding `O=[N+]([O-])c1cccc(NCc2cn(-c3ccnc4cc(Cl)ccc34)nn2)c1` [Compound 11i, [1-(7-Chloro-4-quinolinyl)-1H-1,2,3-triazole-4-methyl]-3-nitroaniline], in series [1], the CC50 was found to be 0.00901 µM. In addition, the IC50 in series [2] (setting [7]) was determined as 0.17 µM; in series [2] (setting [9]) it was 0.167 µM. The “SI (CC50/IC50)” value in series [2] is on record as 0.05.

For the compound `COc1ccc(NCc2cn(-c3ccnc4cc(Cl)ccc34)nn2)cc1` [Compound 11j, [1-(7-Chloro-4-quinolinyl)-1H-1,2,3-triazole-4-methyl]-4-methoxyaniline], in series [1], the CC50 was 4 µM. Moreover, the MIC90 in series [5] (setting [8]) was determined as 1370 µM (≈ 501 µg/mL). For the same compound, the IC50 in series [2] (setting [7]) was 180 µM. Further, the “SI (CC50/IC50)” value in series [2] is reported as 0.02.

Take `CC[C@@H](CO)NCCN[C@@H](CC)CO` [Ethambutol, reference compound]: in series [5] (setting [8]), the MIC90 came to 9.68 µM (≈ 1.98 µg/mL).
